Earlier results in patent US20160143979A1, “Long Pepper Extract an Effective Anticancer Treatment” (priority 2014, published 2016).

Test system: cancer cells
Conditions: previous study

## COc1cc(/C=C/C(=O)N2CCC=CC2=O)cc(OC)c1OC [piperlongumine]
  concentration required for significant cell death induction: 10
